Experimental data reported in ChEMBL document CHEMBL1201862, “PubChem BioAssay data set” (2004).
Blank lines part the entries; values can stand above or below the compound they belong to. Activity calls are given as the source filed them.

Tests used:
[1] = biological target: T1, G-protein coupled receptor 35 (Homo sapiens, UniProt Q9HC97); assay: SAR analysis of Agonists of the GPR35 Receptor using an Image-Based Assay - Set 4. [Related pubchem assays (depositor defined):AID2013, AID2026]; format: functional
Cannabinoid receptor 1 [2] = biological target: T2, Cannabinoid receptor 1 (Homo sapiens, UniProt P21554); assay: SAR analysis of agonists of the Cannabinoid Receptor 1 using an Image-Based Assay - Set 4. [Related pubchem assays (depositor defined):AID2013, AID2026]; format: functional
[3] = biological target: T1, G-protein coupled receptor 35; assay: SAR analysis of Antagonists of the GPR35 Receptor using an Image-Based Assay - Set 6. [Related pubchem assays (depositor defined):AID2013, AID2026]; format: functional
Cannabinoid receptor 1 [4] = biological target: T2, Cannabinoid receptor 1; assay: SAR analysis of antagonists of the Cannabinoid Receptor 1 using an Image-Based Assay - Set 4. [Related pubchem assays (depositor defined):AID2013, AID2026]; format: functional
[5] = biological target: T3, G-protein coupled receptor 55 (Homo sapiens, UniProt Q9Y2T6); assay: SAR Analysis of Selective Antagonists of GPR55 using an Image-Based Assay - Set 4. [Related pubchem assays (depositor defined):AID2013, AID2026]; format: functional
Cannabinoid receptor 2 [6] = biological target: T4, Cannabinoid receptor 2 (Homo sapiens, UniProt P34972); assay: SAR analysis of antagonists of the Cannabinoid Receptor 2 using an Image-Based Assay - Set 3. [Related pubchem assays (depositor defined):AID2013, AID2026]; format: functional
Cannabinoid receptor 2 [7] = biological target: T4, Cannabinoid receptor 2; assay: SAR analysis of agonists of the Cannabinoid Receptor 2 using an Image-Based Assay - Set 3. [Related pubchem assays (depositor defined):AID2013, AID2026]; format: functional
[8] = biological target: Kappa-type opioid receptor (Homo sapiens, UniProt P41145); assay: SAR analysis of small molecule agonists of the kappa opioid receptor via a luminescent beta-arrestin assay - Set 3. [Related pubchem assays (depositor defined):AID1777, AID1785, AID1786, AID1966, AID2133, AID2136, AID2284, AID2500]; format: functional
[9] = viability of uninfected HEp-2 cells – cell-based, HTS, cytotoxicity control for RSV inhibitor project, dose response (AID 2410); format: functional; details: human respiratory syncytial virus
[10] = toxicity toward cultured mammalian cells – cell-based, plate reader, cherry-pick samples, cytotoxicity control, dose response (AID 504397); format: functional
HeLa = assay: ATP-based viability loss in HeLa cells – cell-based, CellTiter-Glo luminescence, cherry-pick samples, cytotoxicity control for MITF activator project, dose response (AID 540259); format: functional; details: Homo sapiens
[11] = biological target: T3, G-protein coupled receptor 55; assay: inhibition of LPI-stimulated GPR55 beta-arrestin translocation – imaging, U2OS, beta-arrestin-GFP, LPI agonist, primary screen (AID 2013); format: functional;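 further: antagonist potency measured as reduced agonist-driven arrestin aggregation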
Cannabinoid receptor 1 [12] = biological target: T2, Cannabinoid receptor 1; assay: SAR analysis of antagonists of the Cannabinoid Receptor 1 using an Image-Based Assay - Set 2. [Related pubchem assays (depositor defined):AID2013, AID2026]; format: functional
[13] = biological target: T1, G-protein coupled receptor 35; assay: SAR analysis of Agonists of the GPR35 Receptor using an Image-Based Assay - Set 2. [Related pubchem assays (depositor defined):AID2013, AID2026]; format: functional
Cannabinoid receptor 2 [14] = biological target: T4, Cannabinoid receptor 2; assay: SAR analysis of antagonists of the Cannabinoid Receptor 2 using an Image-Based Assay. [Related pubchem assays (depositor defined):AID2013, AID2026]; format: functional
Cannabinoid receptor 1 [15] = biological target: T2, Cannabinoid receptor 1; assay: SAR analysis of agonists of the Cannabinoid Receptor 1 using an Image-Based Assay - Set 2. [Related pubchem assays (depositor defined):AID2013, AID2026]; format: functional
[16] = biological target: T1, G-protein coupled receptor 35; assay: SAR analysis of Antagonists of the GPR35 Receptor using an Image-Based Assay - Set 3. [Related pubchem assays (depositor defined):AID2013, AID2026]; format: functional
[17] = biological target: T3, G-protein coupled receptor 55; assay: blockade of LPI-induced GPR55 arrestin translocation – imaging, U2OS, beta-arrestin-GFP, LPI agonist, set 2, SAR follow-up (AID 2820); format: functional
Cannabinoid receptor 2 [18] = biological target: T4, Cannabinoid receptor 2; assay: SAR analysis of agonists of the Cannabinoid Receptor 2 using an Image-Based Assay. [Related pubchem assays (depositor defined):AID2013, AID2026]; format: functional
[19] = biological target: Sphingosine 1-phosphate receptor 1 (Homo sapiens, UniProt P21453); assay: Fluorescence-based counterscreen assay for S1P4 agonists: Cell-based dose response high throughput screening assay to identify agonists of the Sphingosine 1-Phosphate Receptor 1 (S1P1). [Related pubchem assays (depositor defined):AID1509, AID1523, AID1801, AID463107, AID463118, AID463119, AID463122, AID463123, AID463129, AID463225, AID504400, AID504460]; format: functional
[20] = biological target: Sphingosine 1-phosphate receptor 4 (Homo sapiens, UniProt O95977); assay: Fluorescence dose response cell-based high throughput screening assay for agonists of the Sphingosine 1-Phosphate Receptor 4 (S1P4). [Related pubchem assays: 1509 (Primary screen.), 1523 (Confirmation screen in triplicates.)]; format: functional
[21] = biological target: T5, Tyrosine-protein phosphatase non-receptor type 22 (Homo sapiens, UniProt Q9Y2R2); assay: LYP1 Fluorescent Assay using OMFP substrate for In Vitro dose response studies. [Related pubchem assays (depositor defined):AID1779, AID1784, AID435024]
T5 sequence (Q9Y2R2 whole entry): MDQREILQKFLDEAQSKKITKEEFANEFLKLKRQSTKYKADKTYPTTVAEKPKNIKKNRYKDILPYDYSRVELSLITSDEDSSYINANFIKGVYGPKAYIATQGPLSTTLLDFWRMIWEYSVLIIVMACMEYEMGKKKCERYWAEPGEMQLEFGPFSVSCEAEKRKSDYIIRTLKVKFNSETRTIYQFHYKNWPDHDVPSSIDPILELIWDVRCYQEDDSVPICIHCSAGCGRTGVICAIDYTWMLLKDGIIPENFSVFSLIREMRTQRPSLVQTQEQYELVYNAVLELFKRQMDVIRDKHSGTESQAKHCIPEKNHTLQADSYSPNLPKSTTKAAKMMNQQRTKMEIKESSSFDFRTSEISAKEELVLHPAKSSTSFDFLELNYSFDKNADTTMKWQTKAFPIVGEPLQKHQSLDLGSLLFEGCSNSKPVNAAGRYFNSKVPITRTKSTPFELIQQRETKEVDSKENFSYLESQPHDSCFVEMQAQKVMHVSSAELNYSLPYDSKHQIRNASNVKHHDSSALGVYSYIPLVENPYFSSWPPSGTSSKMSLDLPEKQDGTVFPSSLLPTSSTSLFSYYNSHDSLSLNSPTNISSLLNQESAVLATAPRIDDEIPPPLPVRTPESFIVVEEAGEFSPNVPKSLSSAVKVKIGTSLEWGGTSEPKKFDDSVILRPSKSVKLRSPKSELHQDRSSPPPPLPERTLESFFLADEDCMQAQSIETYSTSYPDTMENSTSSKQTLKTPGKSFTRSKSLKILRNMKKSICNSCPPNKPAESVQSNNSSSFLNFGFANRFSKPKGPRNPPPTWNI

[22] = biological target: T6, Tyrosine-protein phosphatase non-receptor type 7 (Homo sapiens, UniProt P35236); format: functional
T6 sequence (P35236 whole entry): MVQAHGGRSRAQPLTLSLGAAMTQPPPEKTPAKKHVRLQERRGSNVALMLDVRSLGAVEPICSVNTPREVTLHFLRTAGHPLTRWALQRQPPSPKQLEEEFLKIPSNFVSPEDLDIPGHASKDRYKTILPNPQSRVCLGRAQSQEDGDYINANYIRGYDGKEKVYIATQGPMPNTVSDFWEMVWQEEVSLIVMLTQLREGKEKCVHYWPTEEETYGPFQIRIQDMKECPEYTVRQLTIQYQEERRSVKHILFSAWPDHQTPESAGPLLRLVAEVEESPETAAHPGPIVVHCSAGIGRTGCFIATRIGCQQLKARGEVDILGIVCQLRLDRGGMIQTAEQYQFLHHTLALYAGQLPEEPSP

[23] = biological target: T6, Tyrosine-protein phosphatase non-receptor type 7; assay: HTS HePTP Fluorescent Assay using OMFP substrate for In Vitro dose response studies. [Related pubchem assays (depositor defined):AID1059, AID1077, AID1784, AID2068, AID2085, AID435032, AID521]; format: functional
[24] = biological target: T5, Tyrosine-protein phosphatase non-receptor type 22; assay: PTPN22 lymphoid phosphatase activity blockers – biochemical, fluorescence intensity, uHTS (AID 1779)
[25] = biological target: T5, Tyrosine-protein phosphatase non-receptor type 22; format: functional
[26] = biological target: T5, Tyrosine-protein phosphatase non-receptor type 22; format: functional; remark: listed apart in the source

T3 sequence (Q9Y2T6 whole entry): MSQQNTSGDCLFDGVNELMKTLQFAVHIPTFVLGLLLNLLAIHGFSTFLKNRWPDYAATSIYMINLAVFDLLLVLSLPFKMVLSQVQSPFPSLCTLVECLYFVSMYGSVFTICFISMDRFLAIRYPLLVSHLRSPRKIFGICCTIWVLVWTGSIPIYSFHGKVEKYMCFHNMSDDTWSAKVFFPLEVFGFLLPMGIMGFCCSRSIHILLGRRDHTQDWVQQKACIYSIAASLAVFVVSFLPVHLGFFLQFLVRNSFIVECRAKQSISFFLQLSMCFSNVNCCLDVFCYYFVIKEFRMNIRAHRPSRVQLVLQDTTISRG
T2 sequence (P21554 whole entry): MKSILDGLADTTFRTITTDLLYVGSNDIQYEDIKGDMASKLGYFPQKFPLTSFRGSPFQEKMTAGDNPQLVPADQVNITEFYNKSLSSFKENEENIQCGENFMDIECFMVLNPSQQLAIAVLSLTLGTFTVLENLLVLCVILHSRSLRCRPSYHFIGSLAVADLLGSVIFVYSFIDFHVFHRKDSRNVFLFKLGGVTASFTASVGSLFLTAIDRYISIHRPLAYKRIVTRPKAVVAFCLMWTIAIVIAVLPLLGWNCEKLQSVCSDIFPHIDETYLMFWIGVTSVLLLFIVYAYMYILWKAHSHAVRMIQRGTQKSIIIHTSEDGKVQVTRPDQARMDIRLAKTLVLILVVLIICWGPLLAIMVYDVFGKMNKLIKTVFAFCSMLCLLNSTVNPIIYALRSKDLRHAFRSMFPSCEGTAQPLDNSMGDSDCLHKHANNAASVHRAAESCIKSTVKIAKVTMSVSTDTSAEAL
T1 sequence (Q9HC97 whole entry): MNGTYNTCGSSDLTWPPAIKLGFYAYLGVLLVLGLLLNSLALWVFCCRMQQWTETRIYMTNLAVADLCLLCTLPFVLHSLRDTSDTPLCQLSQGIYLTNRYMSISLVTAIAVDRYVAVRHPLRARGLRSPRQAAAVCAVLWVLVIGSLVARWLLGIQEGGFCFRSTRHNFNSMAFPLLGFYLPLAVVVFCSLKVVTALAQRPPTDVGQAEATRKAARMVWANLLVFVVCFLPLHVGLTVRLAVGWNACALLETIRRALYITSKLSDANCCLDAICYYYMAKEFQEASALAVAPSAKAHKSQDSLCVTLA
T4 sequence (P34972 whole entry): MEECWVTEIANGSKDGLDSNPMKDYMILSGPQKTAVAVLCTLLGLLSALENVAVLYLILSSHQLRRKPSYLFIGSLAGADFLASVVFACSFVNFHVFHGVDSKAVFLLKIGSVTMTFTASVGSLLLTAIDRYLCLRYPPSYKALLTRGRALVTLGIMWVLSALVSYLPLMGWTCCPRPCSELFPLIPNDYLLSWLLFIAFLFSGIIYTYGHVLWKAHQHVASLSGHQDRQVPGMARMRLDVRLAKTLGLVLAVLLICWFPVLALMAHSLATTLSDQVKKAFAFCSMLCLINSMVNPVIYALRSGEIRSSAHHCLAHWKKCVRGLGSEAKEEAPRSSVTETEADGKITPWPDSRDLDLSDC
Kappa-type opioid receptor, sequence (P41145 whole entry): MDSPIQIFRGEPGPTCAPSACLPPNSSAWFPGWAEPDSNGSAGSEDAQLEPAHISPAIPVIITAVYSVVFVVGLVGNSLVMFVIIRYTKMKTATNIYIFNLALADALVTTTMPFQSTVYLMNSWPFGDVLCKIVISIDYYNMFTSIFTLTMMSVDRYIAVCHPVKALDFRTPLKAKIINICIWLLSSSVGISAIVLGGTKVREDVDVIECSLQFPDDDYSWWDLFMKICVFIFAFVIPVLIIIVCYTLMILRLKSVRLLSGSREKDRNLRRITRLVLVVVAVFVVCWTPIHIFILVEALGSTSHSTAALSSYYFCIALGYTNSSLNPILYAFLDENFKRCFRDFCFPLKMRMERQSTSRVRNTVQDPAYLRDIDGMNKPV
Sphingosine 1-phosphate receptor 4, sequence (O95977 whole entry): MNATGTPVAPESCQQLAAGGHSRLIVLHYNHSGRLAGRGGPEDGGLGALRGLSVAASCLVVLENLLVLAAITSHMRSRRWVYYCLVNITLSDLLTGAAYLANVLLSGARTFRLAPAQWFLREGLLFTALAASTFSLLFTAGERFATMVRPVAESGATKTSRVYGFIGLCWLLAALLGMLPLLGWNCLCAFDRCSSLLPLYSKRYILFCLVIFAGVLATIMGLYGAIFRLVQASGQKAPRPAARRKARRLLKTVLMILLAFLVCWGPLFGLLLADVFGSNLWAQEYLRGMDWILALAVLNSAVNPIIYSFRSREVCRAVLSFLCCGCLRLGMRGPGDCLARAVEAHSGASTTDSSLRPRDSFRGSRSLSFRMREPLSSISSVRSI
Sphingosine 1-phosphate receptor 1, sequence (P21453 whole entry): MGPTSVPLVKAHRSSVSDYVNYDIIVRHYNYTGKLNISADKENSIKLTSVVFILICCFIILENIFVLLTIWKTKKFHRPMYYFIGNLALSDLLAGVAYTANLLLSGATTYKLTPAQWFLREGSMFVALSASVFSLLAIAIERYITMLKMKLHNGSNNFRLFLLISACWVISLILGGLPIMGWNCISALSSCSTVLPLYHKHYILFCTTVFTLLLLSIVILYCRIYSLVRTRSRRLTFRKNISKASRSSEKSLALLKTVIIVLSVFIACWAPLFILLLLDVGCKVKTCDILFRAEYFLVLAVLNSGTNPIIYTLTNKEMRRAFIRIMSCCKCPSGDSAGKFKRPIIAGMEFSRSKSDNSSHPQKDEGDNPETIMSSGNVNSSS

EC50 [1]: > 32 µM (inactive)
EC50 (Cannabinoid receptor 1 [2]): > 32 µM (inactive)
IC50 [3]: > 32 µM (inactive)
IC50 (Cannabinoid receptor 1 [4]): 4.14 µM (active)
IC50 [5]: 18.4 µM (inactive)
IC50 (Cannabinoid receptor 2 [6]): 23.8 µM (inactive)
EC50 (Cannabinoid receptor 2 [7]): > 32 µM (inactive)
Compound: CCOc1ccc(-c2n[nH]c(C)c2-c2ccccc2)c(O)c1

EC50 [8]: 11 µM (inactive)
Compound: FC(F)(F)c1cc(CSc2nnc(-c3ccc(Br)cc3)n2Cc2ccco2)ccc1Cl

Compound: COc1cccc2sc3ccc(C#CC4(O)CCCCC4)cc3c(=O)c12
CC50 [9]: 13.9 µM (active)
AC50 [10]: 85.7 µM (active)
AC50 (HeLa): 39.6 µM (active)

IC50 [11]: 1.76 µM (active)
IC50 (Cannabinoid receptor 1 [12]): > 32 µM (inactive)
EC50 [13]: > 32 µM (inactive)
IC50 (Cannabinoid receptor 2 [14]): > 32 µM (inactive)
EC50 (Cannabinoid receptor 1 [15]): > 32 µM (inactive)
IC50 [16]: > 32 µM (inactive)
IC50 [17]: 2.36 µM (active)
EC50 (Cannabinoid receptor 2 [18]): > 32 µM (inactive)
Compound: COC(=O)C1=C(N)c2ccccc2C1(C#N)c1ccccc1 (configuration not stated)

EC50 [19]: 33.5 µM (inactive)
EC50 [20]: 37 µM (not active)
Compound: Cn1c(-c2cc3ccc(OC(=O)C(C)(C)C)cc3oc2=O)nc2ccccc21

IC50 [21]: > 99 µM (inactive)
IC50 [22]: > 79.4 µM (inactive)
IC50 [23]: > 99 µM (inactive)
IC50 [24]: > 99 µM (inactive)
IC50 [25]: > 79.4 µM (inactive)
IC50 [26]: > 79.4 µM (inactive)
Compound: O=C(N/N=C/c1ccc2c(c1)OCO2)c1cc(-c2ccncc2)nc2ccccc12
